Measured values taken from US7008953B2, “3, 5 Disubstituted indazole compounds, pharmaceutical compositions, and methods for mediating or inhibiting cell proliferation” (Agouron Pharmaceuticals, Inc., priority 2003, dated 2006).

Key:
[1] = target: mitogen and stress-activated protein kinase 1 (MSK1) (Homo sapiens, UniProt O75582); test: Panel of protein kinases: MSK1; type: biochemical; conditions: method of Davies et al.
Description: (§1) The compounds of the present invention were screened against a large panel of protein kinase to determine inhibition activity for CDK as against a variety of protein kinases. The assay was conducted using methods and materials described by Davies, S et al. Specificity and Mechanism of Action of Some Commonly Used Protein Kinase Inhibitors, Biochem J. 351, 95–105 (2000), the contents of which are herein incorporated by reference. The compounds were screened against a panel of protein kinases which include AMP-activiated protein kinase (AMPK), checkpoint kinase (CHK1), casein kinases 1 and 2 (CK1 and CK2), cytoplasmic tyrosine kinase (CSK), dual serine/threonine/tyrosine kinase (DYRK1A), glycogen synthase kinase 3 (GSK3B), c-Jun N-terminal kinase (JNK), lymphocyte kinase (LCK), mitogen-activated protein kinases 2, K-1a, K2 (MAPK2, MAPKAP-K1a, and MAPKAP-K2), MAPK kinase (MKK1, also called MEK), mitogen and stress-activated protein kinase 1 (MSK1), never-in-mitosis kinase 6 (NEK6), p70 ribosomal protein S6 kinase (P70s6K1), 3-phosphoinositide-dependent protein kinase 1 (PDK1), phosphorylase kinase (PHK), protein kinase A (PKA), protein kinase B (PKB, also called Akt), protein kinase C (PKCa), p38-regulated/activated kinase (PRAK), Rho-dependent protein kinase (ROCK-II), stress-activated protein kinase 2a, 2b, 3 and 4 (SAPK-2A or p38, SAPK-2b or p38β2, SAPK3 or p38γ, SAPK4 or p38δ, respectively), and serum- and glucocorticoid-induced kinase (SGK). Compound activity was grouped into categories of weak (<50%), moderate (50–75%) and strong inhibition (>75%).

[2] = target: never-in-mitosis kinase 6 (NEK6) (Homo sapiens, UniProt Q9HC98); test: Panel of protein kinases: NEK6; type: biochemical; conditions: method of Davies et al.
Description: as §1

protein kinase C (PKCa) = protein kinase C (PKCa) (Homo sapiens, UniProt P17252); test: Panel of protein kinases: PKCa; type: biochemical; conditions: method of Davies et al.
Description: as §1

[3] = target: mitogen-activated protein kinase 2 (MAPK2) (Homo sapiens, UniProt P28482); test: Panel of protein kinases: MAPK2; type: biochemical; conditions: method of Davies et al.
Description: as §1

HCT 116 cell line = test: Inhibition of cell growth, MTT tetrazolium salt assay; type: cell-based; conditions: Homo sapiens, 50% inhibition of growth
Description: Inhibition of cell growth was measured using the tetrazolium salt assay, which is based on the ability of viable cells to reduce 3-(4,5-dimethylthiazol-2-yl)-2,5-[2H]-diphenyltetrazolium bromide (MTT) to formazan (Mossman, Journal of Immunological Methods, vol. 65 (1983), pp. 55–58). The water-insoluble purple formazan product was then detected spectrophotometrically. The HCT 116 cell line was grown in 96-well plates. Cells were plated in the appropriate medium at a volume of 135 μl/well in McCoy's 5A Medium. Plates were incubated for four hours before addition of inhibitor compounds. Different concentrations of inhibitor compounds were added in 0.5% (v/v) dimethylsulfoxide (15 μL/well), and cells were incubated at 37° C. (5% CO2) for four to six days (depending on cell type). At the end of the incubation, MTT was added to a final concentration of 0.2 mg/mL, and cells were incubated for 4 hours more at 37° C. After centrifugation of the plates and removal of medium, the absorbance of the formazan (solubilized in dimethylsulfoxide) was measured at 540 nm. The concentration of inhibitor compound causing 50% inhibition of growth was determined from the linear portion of a semi-log plot of inhibitor concentration versus percentage inhibition. All results were compared to control cells treated only with 0.5% (v/v) dimethylsulfoxide.

[4] = target: T1, serum- and glucocorticoid-induced kinase (SGK) (Homo sapiens, UniProt O00141, S422D); test: Panel of protein kinases: SGK; type: biochemical; conditions: method of Davies et al.
T1 sequence (O00141 61-431 S422D limits assumed): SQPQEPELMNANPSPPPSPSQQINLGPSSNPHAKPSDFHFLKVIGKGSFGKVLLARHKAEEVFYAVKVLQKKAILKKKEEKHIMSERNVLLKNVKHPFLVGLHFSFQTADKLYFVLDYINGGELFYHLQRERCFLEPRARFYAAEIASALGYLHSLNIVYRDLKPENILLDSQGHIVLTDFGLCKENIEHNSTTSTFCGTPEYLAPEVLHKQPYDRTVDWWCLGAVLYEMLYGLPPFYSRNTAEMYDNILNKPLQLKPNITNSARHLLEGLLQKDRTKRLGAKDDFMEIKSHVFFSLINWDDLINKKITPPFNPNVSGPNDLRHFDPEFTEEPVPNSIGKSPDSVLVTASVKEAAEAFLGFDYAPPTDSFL
Description: as §1

[5] = target: glycogen synthase kinase 3 (GSK3B) (Homo sapiens, UniProt P49841); test: Panel of protein kinases: GSK3B; type: biochemical; conditions: method of Davies et al.
Description: as §1

[6] = target: dual serine/threonine/tyrosine kinase (DYRK1A) (Homo sapiens, UniProt Q13627); test: Panel of protein kinases: DYRK1A; type: biochemical; conditions: method of Davies et al.
Description: as §1

[7] = target: MAPK kinase (MKK1, also called MEK) (Homo sapiens, UniProt Q02750); test: Panel of protein kinases: MKK1; type: biochemical; conditions: method of Davies et al.
Description: as §1

MAPKAP-K1a = MAPKAP-K1a (Homo sapiens, UniProt Q15418); test: Panel of protein kinases: MAPKAP-K1a; type: biochemical; conditions: method of Davies et al.
Description: as §1

[8] = target: T2, stress-activated protein kinase 4 (SAPK4 or p38δ) (Homo sapiens, UniProt O15264); test: Panel of protein kinases: SAPK4; type: biochemical; conditions: method of Davies et al.
T2 sequence (O15264 1-365): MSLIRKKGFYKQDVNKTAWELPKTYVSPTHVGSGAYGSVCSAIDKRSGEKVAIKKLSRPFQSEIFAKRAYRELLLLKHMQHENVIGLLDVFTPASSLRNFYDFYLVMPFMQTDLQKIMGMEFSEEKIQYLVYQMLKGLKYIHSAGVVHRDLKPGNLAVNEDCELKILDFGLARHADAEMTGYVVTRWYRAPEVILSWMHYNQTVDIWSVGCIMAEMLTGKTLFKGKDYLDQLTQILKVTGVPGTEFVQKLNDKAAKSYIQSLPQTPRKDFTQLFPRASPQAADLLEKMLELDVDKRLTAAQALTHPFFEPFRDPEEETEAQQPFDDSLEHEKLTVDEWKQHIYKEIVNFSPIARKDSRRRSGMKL
Description: as §1

protein kinase A (PKA) = protein kinase A (PKA) (Bos taurus, UniProt P00517); test: Panel of protein kinases: PKA; type: biochemical; conditions: method of Davies et al.
Description: as §1

[9] = target: phosphorylase kinase (PHK) (Oryctolagus cuniculus, UniProt P00518); test: Panel of protein kinases: PHK; type: biochemical; conditions: method of Davies et al.
Description: as §1

mitogen-activated protein kinase 2 (MAPK2), sequence (P28482 whole entry): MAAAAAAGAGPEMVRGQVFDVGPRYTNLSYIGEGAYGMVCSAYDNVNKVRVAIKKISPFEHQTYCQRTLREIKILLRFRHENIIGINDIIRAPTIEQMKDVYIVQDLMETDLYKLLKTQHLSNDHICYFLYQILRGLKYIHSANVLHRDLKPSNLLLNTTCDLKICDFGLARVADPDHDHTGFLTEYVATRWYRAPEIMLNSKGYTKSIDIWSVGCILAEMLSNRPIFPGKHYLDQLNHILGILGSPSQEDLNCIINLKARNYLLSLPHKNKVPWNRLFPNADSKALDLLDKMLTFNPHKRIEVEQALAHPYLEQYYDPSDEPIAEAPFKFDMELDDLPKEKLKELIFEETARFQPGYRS
never-in-mitosis kinase 6 (NEK6), sequence (Q9HC98 whole entry, species assumed): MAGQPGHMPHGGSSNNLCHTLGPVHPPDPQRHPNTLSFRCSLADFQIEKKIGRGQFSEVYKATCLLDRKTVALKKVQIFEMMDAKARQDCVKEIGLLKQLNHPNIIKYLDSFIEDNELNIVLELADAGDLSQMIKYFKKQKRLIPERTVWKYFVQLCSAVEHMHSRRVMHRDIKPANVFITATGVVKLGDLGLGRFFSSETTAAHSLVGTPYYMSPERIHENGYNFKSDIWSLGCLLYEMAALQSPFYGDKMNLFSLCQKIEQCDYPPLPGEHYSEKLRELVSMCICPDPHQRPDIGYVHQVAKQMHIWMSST
MAPK kinase (MKK1, also called MEK), sequence (Q02750 whole entry): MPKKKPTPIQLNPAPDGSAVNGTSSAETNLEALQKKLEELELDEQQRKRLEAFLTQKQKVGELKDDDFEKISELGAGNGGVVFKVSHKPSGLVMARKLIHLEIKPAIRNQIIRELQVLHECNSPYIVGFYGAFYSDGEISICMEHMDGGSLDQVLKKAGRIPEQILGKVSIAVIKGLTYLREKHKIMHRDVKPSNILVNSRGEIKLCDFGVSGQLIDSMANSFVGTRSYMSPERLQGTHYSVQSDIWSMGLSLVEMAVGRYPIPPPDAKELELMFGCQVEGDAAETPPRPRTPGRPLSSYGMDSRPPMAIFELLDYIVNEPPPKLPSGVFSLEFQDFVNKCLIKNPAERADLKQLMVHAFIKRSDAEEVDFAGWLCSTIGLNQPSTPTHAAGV
mitogen and stress-activated protein kinase 1 (MSK1), sequence (O75582 whole entry, species assumed): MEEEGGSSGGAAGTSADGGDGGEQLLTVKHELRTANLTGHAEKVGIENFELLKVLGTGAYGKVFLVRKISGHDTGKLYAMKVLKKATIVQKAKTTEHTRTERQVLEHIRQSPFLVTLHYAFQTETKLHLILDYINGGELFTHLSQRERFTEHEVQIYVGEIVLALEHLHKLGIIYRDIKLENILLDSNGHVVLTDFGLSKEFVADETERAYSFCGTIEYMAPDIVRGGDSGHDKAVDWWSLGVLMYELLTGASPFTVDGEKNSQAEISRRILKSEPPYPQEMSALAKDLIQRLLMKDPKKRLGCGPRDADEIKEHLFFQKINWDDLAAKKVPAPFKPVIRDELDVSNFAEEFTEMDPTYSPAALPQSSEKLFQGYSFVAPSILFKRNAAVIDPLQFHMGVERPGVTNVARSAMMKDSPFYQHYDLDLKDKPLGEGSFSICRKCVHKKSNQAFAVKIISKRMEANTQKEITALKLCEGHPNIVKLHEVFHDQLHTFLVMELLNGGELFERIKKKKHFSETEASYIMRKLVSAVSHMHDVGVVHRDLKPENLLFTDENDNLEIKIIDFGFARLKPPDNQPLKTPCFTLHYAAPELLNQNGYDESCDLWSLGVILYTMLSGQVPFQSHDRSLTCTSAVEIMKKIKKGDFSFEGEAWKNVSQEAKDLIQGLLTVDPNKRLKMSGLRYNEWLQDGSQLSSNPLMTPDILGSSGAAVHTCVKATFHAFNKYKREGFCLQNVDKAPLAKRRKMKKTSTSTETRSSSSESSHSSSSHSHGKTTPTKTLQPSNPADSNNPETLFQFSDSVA
MAPKAP-K1a, sequence (Q15418 whole entry, species assumed): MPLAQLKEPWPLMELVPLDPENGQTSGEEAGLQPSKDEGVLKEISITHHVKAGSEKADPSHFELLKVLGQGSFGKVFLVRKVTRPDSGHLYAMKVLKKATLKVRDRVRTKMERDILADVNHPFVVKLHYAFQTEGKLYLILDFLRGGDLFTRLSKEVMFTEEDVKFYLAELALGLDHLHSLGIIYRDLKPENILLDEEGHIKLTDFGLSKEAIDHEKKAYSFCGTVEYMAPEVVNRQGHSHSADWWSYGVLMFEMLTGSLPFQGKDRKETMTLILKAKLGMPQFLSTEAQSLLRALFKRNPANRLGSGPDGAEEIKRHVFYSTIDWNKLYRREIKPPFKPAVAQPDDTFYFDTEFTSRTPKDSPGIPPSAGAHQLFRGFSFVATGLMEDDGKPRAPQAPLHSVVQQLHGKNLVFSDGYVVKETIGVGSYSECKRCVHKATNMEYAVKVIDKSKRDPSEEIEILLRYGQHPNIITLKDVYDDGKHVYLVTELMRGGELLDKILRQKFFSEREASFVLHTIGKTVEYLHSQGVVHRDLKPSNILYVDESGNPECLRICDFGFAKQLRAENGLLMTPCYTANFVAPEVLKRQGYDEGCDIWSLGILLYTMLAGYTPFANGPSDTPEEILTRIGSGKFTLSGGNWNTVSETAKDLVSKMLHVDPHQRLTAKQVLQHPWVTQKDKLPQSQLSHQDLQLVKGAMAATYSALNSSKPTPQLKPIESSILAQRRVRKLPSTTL
glycogen synthase kinase 3 (GSK3B), sequence (P49841 whole entry, species assumed): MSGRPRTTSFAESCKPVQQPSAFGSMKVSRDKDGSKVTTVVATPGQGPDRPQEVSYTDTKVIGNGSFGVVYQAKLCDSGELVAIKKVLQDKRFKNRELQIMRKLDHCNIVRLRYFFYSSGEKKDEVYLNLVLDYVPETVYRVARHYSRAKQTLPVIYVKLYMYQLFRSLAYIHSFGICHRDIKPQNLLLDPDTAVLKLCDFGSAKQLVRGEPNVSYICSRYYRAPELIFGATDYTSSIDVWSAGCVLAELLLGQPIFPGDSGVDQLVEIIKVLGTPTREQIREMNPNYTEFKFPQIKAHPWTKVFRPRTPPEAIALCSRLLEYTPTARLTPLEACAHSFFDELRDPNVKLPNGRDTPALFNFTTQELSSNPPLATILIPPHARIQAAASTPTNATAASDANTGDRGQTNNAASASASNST

Compound | Kinase MSK1 inhibition [1] | Kinase NEK6 inhibition [2] | Kinase PKCa inhibition (protein kinase C (PKCa)) | Kinase MAPK2 inhibition [3] | IC50 (HCT 116 cell line) [nM] | Kinase SGK inhibition [4] | Kinase GSK3B inhibition [5] | Kinase DYRK1A inhibition [6] | Kinase MKK1 inhibition [7] | Kinase MAPKAP-K1a inhibition (MAPKAP-K1a) | Kinase SAPK4 inhibition [8] | Kinase PKA inhibition (protein kinase A (PKA)) | Kinase PHK inhibition [9]
CCNCc1cncc(-c2ccc3[nH]nc(-c4nc5c(C(=O)NC)cccc5[nH]4)c3c2)c1C [B] | − (Weak inhibition <50%) | − (Weak inhibition <50%) | ++ (Strong inhibition >75%) | − (Weak inhibition <50%) | 90 | + (Moderate inhibition 50–75%) | ++ (Strong inhibition >75%) | ++ (Strong inhibition >75%) | + (Moderate inhibition 50–75%) | ++ (Strong inhibition >75%) | − (Weak inhibition <50%) | ++ (Strong inhibition >75%) | + (Moderate inhibition 50–75%)
CCNCc1cncc(-c2ccc3[nH]nc(-c4nc5cc(F)ccc5[nH]4)c3c2)c1C [Example 2, Ethyl-{5-[3-(5-fluoro-1H-benzoimidazol-2-yl)-1H-indazol-5-yl]-4-methyl-pyridin-3-ylmethyl}-amine] | − (Weak inhibition <50%) | − (Weak inhibition <50%) | − (Weak inhibition <50%) | − (Weak inhibition <50%) | 22 | − (Weak inhibition <50%) | ++ (Strong inhibition >75%) | ++ (Strong inhibition >75%) | − (Weak inhibition <50%) | − (Weak inhibition <50%) | − (Weak inhibition <50%) | − (Weak inhibition <50%) | ++ (Strong inhibition >75%)
CCNCc1cncc(-c2ccc3[nH]nc(-c4nc5c(SC)cccc5[nH]4)c3c2)c1C [C] | − (Weak inhibition <50%) | − (Weak inhibition <50%) | + (Moderate inhibition 50–75%) | − (Weak inhibition <50%) | 86 | − (Weak inhibition <50%) | ++ (Strong inhibition >75%) | ++ (Strong inhibition >75%) | + (Moderate inhibition 50–75%) | ++ (Strong inhibition >75%) | − (Weak inhibition <50%) | + (Moderate inhibition 50–75%) | + (Moderate inhibition 50–75%)
CCNCc1cncc(-c2ccc3[nH]nc(-c4nc5c(F)cc(F)cc5[nH]4)c3c2)c1C [Example 1, {5-[3-(4,6-Difluoro-1H-benzoimidazol-2-yl)-1H-indazol-5-yl]-4-methyl-pyridin-3-ylmethyl}-ethyl-amine] | − (Weak inhibition <50%) | − (Weak inhibition <50%) | − (Weak inhibition <50%) | − (Weak inhibition <50%) | 120 | − (Weak inhibition <50%) | ++ (Strong inhibition >75%) | ++ (Strong inhibition >75%) | − (Weak inhibition <50%) | ++ (Strong inhibition >75%) | − (Weak inhibition <50%) | − (Weak inhibition <50%) | + (Moderate inhibition 50–75%)
CCNCc1cncc(-c2ccc3[nH]nc(-c4nc5ccccc5[nH]4)c3c2)c1C [A] | − (Weak inhibition <50%) | − (Weak inhibition <50%) | + (Moderate inhibition 50–75%) | − (Weak inhibition <50%) | 70 | + (Moderate inhibition 50–75%) | ++ (Strong inhibition >75%) | ++ (Strong inhibition >75%) | ++ (Strong inhibition >75%) | ++ (Strong inhibition >75%) | − (Weak inhibition <50%) | ++ (Strong inhibition >75%) | ++ (Strong inhibition >75%)
CCNCc1cncc(-c2ccc3[nH]nc(-c4nc5c(NC(C)=O)cccc5[nH]4)c3c2)c1C [D] | − (Weak inhibition <50%) | − (Weak inhibition <50%) | − (Weak inhibition <50%) | − (Weak inhibition <50%) | > 500 | − (Weak inhibition <50%) | ++ (Strong inhibition >75%) | ++ (Strong inhibition >75%) | + (Moderate inhibition 50–75%) | + (Moderate inhibition 50–75%) | − (Weak inhibition <50%) | − (Weak inhibition <50%) | − (Weak inhibition <50%)
